Source: patent US10576147B2, “Muramyl peptide derivative compound, synthesis and uses thereof” (BHARAT BIOTECH INTERNATIONAL LIMITED, priority 2015, dated 2020)

Tested on: BALB/c mice
Experiment: HBsAg specific total IgG endpoint titer (ELISA)
Format: in vivo
Protocol: Female BALB/c mice (6-8 week old, n=6/group) were vaccinated intramuscularly (i.m, at two quadriceps) on Day 0 & Day 28 with vehicle control or Hepatitis B antigen (20 μg/mouse/dose/100 μl, 50 μl per quadricep) with and without MDP-MN (10 μg or 50 or 100 μg/mouse/dose/100 μl) diluted in Phosphate buffered saline. Prior to immunization, Hepatitis B surface antigen was mixed with MDP-MN, by gentle agitation (1:1 ratio), under sterile conditions. Mice were bled and euthanized on Day 42. Blood was collected & serum was isolated to evaluate analyze antigen specific total IgG antibody titer (as in example 3.1.2) and antibody subclasses (isotypes namely IgG1 or IgG2a or IgG3, as in example 3.1.3).
Serial dilutions of individual serum samples ([…] ranging from 1:50 to 819200) were used to determine the endpoint titer of antigen specific total IgG antibody titer by ELISA. Details of assay protocol as described below.
For analysis of antigen specific antibody titer, hepatitis B surface antigen was suspended in 50 mM carbonate bicarbonate buffer, pH 9.6 and coated at a concentration (1 μg/ml, 100 μl/well) in 96 well plates and kept at 4° C. for overnight. Next day, plates were washed with washing buffer (PBST-Phosphate buffered saline, pH 7.4 with 0.05% Tween) and blocked with blocking buffer (PBS with 1% BSA) at RT for 1-2 hr. ELISA plates were washed again with wash buffer (PBS, 0.05% Tween™20) and added serially diluted (in PBS, 0.1% BSA, 0.05% Tween™20, 0.02% sodium azide) sera from hyper immunized mice and incubated at RT for 1 hr. After incubation, wells were again washed and added Goat Anti-mouse IgG HRP conjugate antibody at a dilution of 1:5000 & incubated for 1 hr at RT. Later, wells were washed, and developed with OPD (O-phenylene diamine) as a substrate for 15 min. Reaction was stopped using 2N H2SO4. Absorbance was read at 490 nm. Threshold (Mean+3SD) was established by taking the absorbance of negative control (PBS) group, followed by the reactive index (ratio of absorbance at a particular dilution & threshold), so as to determine end point titer. […]

For `C[C@H](NC(=O)[C@@H](C)O[C@H]1[C@H](O)[C@@H](CO)OC(O)[C@@H]1NC(=O)[C@H](O)CO)C(=O)N[C@H](CCC(=O)O)C(N)=O` (stereo partly drawn) [MDP-MN, (4R)-5-amino-4-((2S)-2-((2R)-2-(((3R,4R,5S,6R)-3-((2,3-dihydroxypropanamido))-2,5-dihydroxy-6-(hydroxymethyl)tetrahydro-2H-pyran-4-yl)oxy)propanamido)propanamido)-5-oxopentanoic acid], which “increase of antibody titer vs HBsAg alone” value (MDP-MN 50 μg/mouse) is on record?
Its value is 4 fold.

And the “increase of antibody titer vs HBsAg alone” value (MDP-MN 100 μg/mouse)?
The value was 8 fold.

And the “increase of humoral response (TH2)” value (mice vaccinated with Hepatitis B surface antigen in presence of MDP-MN, dose dependent)?
The value was 4-8 fold.
